Assay results as given in patent US20160060235A1, “Therapeutic Agent for Type 2 Diabetes” (NATIONAL UNIVERSITY CORPORATION KUMAMOTO UNIVERSITY, priority 2013, published 2016).

Experiments:
[1] = test system: E. coli harboring pACYCDuet-1-Phe; assay: Primary screening: dual luciferase assay of translation accuracy (frameshift mistranslation reporter); assay type: cell-based; settings: versus DMSO control; for improvement of translation accuracy as compared with the control (in words): existing therapeutic agents for diabetes, 10 μM; for relative translation accuracy with the translation accuracy of the control defined as 1: compound at final concentration of 10 μM, shake culture 1 hour
Source text: The vector map of the prepared plasmid pACYCDuet-1-Phe (SEQ ID NO: 1) is shown in the left diagram of FIG. 1. The phenylalanine codon TTT was designed as NNN. When translation takes place according to the normal reading frame, the stop codon TAA appears immediately after TTT so that the sequence is not translated into firefly luciferase. On the other hand, if mistranslation occurs in TTT so as to skip one T, the stop codon is circumvented so that the sequence is correctly translated into firefly luciferase. This means that the higher the accuracy of translation is, the lower the fluorescence intensity of firefly luciferase is.
Renilla luciferase gene is also cloned into this plasmid as a control.
The E. coli harboring pACYCDuet-1-Phe was cultured overnight at 37° C. using 100 mL of a culture medium. After confirmation that OD550 reached 0.4 to 1, 1 mL of the culture medium was dispensed, and each low-molecular compound was added thereto at a final concentration of 10 μM. After shake culture for 1 hour, the E. coli was recovered and lysed by suspension in 10 mM Tris-HCl (pH 7.4), 1 mM magnesium chloride, and 0.1 mg/mL lysozyme (manufactured by Wako Pure Chemical Industries, Ltd.).
The activity of the firefly luciferase and the Renilla luciferase was measured using Dual-Luciferase Reporter Assay System (manufactured by Promega Corp.). To 5 μL of the E. coli lysate, 50 μL of an assay solution for the firefly luciferase was added for the measurement. Then, 50 μL of an assay solution for the Renilla luciferase was added thereto for the measurement. An E. coli lysate supplemented only with DMSO was prepared as a control.
The luminescence intensity of the firefly luciferase was corrected against that of the Renilla luciferase by use of the equation given below. This series of experimental approaches is plotted in FIG. 1.
Relative luminescence intensity=Firefly luciferase/Renilla luciferase
Relative translation accuracy=Relative luminescence intensity (from the addition of only DMSO)/Relative luminescence intensity (in the presence of the compound)

[2] = test system: pancreatic β cell-specific Cdkal1-deficient mouse; assay: Glucose tolerance after long-term (14 days) administration; assay type: in vivo; settings: 1 mg/kg transabdominally once a day over 14 days, glucose 1 g/kg 36 hours after last dose; versus DMSO administration group
Description: Each low-molecular compound found positive in the screening was transabdominally injected once a day over 14 days at a dose of 1 mg/kg to a pancreatic β cell-specific Cdkal1-deficient mouse. A Cdkal1-deficient mouse was prepared as a control by the injection of saline containing DMSO. Finally, glucose was transabdominally injected at a dose of 1 g/kg to all of the mice 36 hours after the administration of the low-molecular compound. Blood was collected (5 μL) from the tail vein every 15 minutes from immediately after the administration of glucose. The blood glucose level in the mouse blood was measured using Accu-Chek AVIVA Nano (manufactured by F. Hoffmann-La Roche, Ltd.). The statistical test was conducted by repeated measure of two-way ANOVA.

[3] = test system: islet of Langerhans isolated from a pancreatic β cell-specific Cdkal1-deficient mouse; assay: Secondary screening: insulin secretion experiment by glucose stimulation; assay type: cell-based; parameters: insulin secretion under low-concentration (2.8 mM) and high-concentration (16.7 mM) glucose stimulation / concentration of insulin secreted into the Ringer solution: unit of the concentration uncertain
Source text: The islet of Langerhans was isolated from a pancreatic β cell-specific Cdkal1-deficient mouse (see non-patent document 11) according to the literature (Gotoh M., et al., Transplantation, 1987, 43 (5), p. 725-730). The chest of the mouse was opened under ether anesthesia, and the common bile duct was peeled off. The pancreas swollen by the gradual injection of a collagenase solution (320 U/mL, manufactured by Sigma-Aldrich Corp.) was excised. The pancreas containing collagenase was digested for 30 minutes in a water bath of 37° C. and then dispersed with a pipette. The islet of Langerhans was isolated using a concentration gradient of a Ficoll solution (manufactured by Amersham Pharmacia Biotech Inc.). The islet of Langerhans was incubated for 30 minutes while kept at 37° C. in a Ringer solution (119 mM sodium chloride, 4.74 mM potassium chloride, 1.19 mM monosodium dihydrogen phosphate, 25 mM sodium bicarbonate, 10 mM HEPES, 2.54 mM calcium chloride, 1.19 mM magnesium chloride, and 0.2% BSA) saturated with a mixed gas of 95% O2 and 5% CO2.
Each low-molecular compound found positive in the primary screening was dissolved in DMSO, and this solution was added at a final concentration of 10 mM to a Ringer solution containing glucose to prepare a Ringer solution. A Ringer solution supplemented only with DMSO was prepared as a control.
The isolated mouse islet of Langerhans was first cultured for 30 minutes in a Ringer solution containing a low concentration (2.8 mM) of glucose. Then, the Ringer solution was replaced with a Ringer solution containing the low-molecular compound and the low concentration of glucose. After 30 minutes, the Ringer solution was recovered, and a Ringer solution containing the low-molecular compound and a high concentration (16.7 mM) of glucose was subsequently added thereto. After 30 minutes, the Ringer solution was recovered. The amount of insulin released into the Ringer solution was detected using an insulin detection kit (Libs Insulin-Mouse (S type), manufactured by Shibayagi Co., Ltd) according to the protocol of the kit.

[4] = test system: pancreatic β cell-specific Cdkal1-deficient mouse; assay: Tertiary screening: glucose tolerance after single administration; assay type: in vivo; settings: 1 mg/kg transabdominally, glucose 1 g/kg after 30 minutes, versus saline administration group
Description: A pancreatic β cell-specific Cdkal1-deficient mouse and a wild-type mouse were each fasted overnight. Then, eperisone was transabdominally injected at a dose of 1 mg/kg to each mouse. Each control individual was prepared by the transabdominal injection of saline to each of a pancreatic β cell-specific Cdkal1-deficient mouse and a wild-type mouse. After 30 minutes, glucose was transabdominally injected at a dose of 1 g/kg to all of these mice. Blood was collected (5 μL) every 15 minutes from immediately after the administration of glucose. The blood glucose level in the mouse blood was measured using Accu-Chek AVIVA Nano (manufactured by F. Hoffmann-La Roche, Ltd.). The statistical test was conducted by repeated measure of two-way ANOVA.

Compound	improvement of translation accuracy as compared with the control (in words) [1]	blood glucose level after glucose administration [2]	relative translation accuracy with the translation accuracy of the control defined as 1 [1]	also measured
COc1ccc(Cl)cc1C(=O)NCCc1ccc(S(=O)(=O)NC(=O)NC2CCCCC2)cc1 [glibenclamide]	none of the existing therapeutic agents for diabetes were shown to significantly improve translation accuracy	–	–	–
CNCCC(Oc1ccc(C(F)(F)F)cc1)c1ccccc1 (stereo not shown) [fluoxetine]	–	significantly decreased blood glucose level	approximately 1.5 times	concentration of insulin secreted into the Ringer solution ([3]; low-concentration (2.8 mM) glucose stimulation, compound at final concentration of 10 (unit uncertain)): significantly improve insulin secretion
CN(C)C(=N)N=C(N)N [metformin]	none of the existing therapeutic agents for diabetes were shown to significantly improve translation accuracy	–	–	–
CCc1ccc(C(=O)C(C)CN2CCCCC2)cc1 (stereo not shown) [eperisone]	–	significantly decreased blood glucose level	–	blood glucose level after glucose administration [4]: significantly decreased blood glucose level; insulin secretion under low-concentration (2.8 mM) and high-concentration (16.7 mM) glucose stimulation ([3]; compound at final concentration of 10 (unit uncertain) in Ringer solution, 30 minutes each): accelerate insulin secretion only under the high-concentration glucose stimulation; relative amount of insulin secreted compared with glibenclamide ([3]; high-concentration (16.7 mM) glucose stimulation, glibenclamide defined as 1): accelerate insulin secretion more highly than glibenclamide
elvitegravir	–	–	approximately 8 times	–
